Test system: 5′ UTR of HCV mRNA
Assay: Phage panning and phage Elisa on biotinylated RNA target
Assay type: binding
Details: phage clones; positive if A405 >2-fold over background
Experimental: Surrogate peptides were obtained by panning a portion of the 5′ UTR of HCV mRNA using both the 20 mer and 40 mer random libraries. All solutions and surfaces were pretreated with DEPC or RNaseZap (Ambion, Inc.), respectively, to eliminate RNase contamination that may compromise the integrity of the RNA. Biotinylated—RNA target was diluted to 1 mg/ml in binding buffer (PBS containing 1 mM MgCl2), denatured at 65° C. for 5 min and reannealed by slow cooling to room temperature to allow for appropriate refolding. The synthetic biotinylated-RNA target had the following sequence, 5′-biotin′AA UUGCCAGGACGACCGGGUCCUUUCUUGGAU CM CCC GCU CM UGC CUG GAG AUU-3′. Reannealed RNAs were stored in small aliquots (10-25 μl/tube) at −20° C. Microtiter wells were treated with RNaseZap (Ambion, Inc.) before use. One hundred microliters of RNA solution diluted to 2.5 ng/μl was added to an appropriate number of wells in a 96-well microtiter plate precoated with Streptavidin (Pierce) and incubated for 1 hr at room temperature. Unbound streptavidin was then blocked with 50 μl of 2 mM biotin at room temperature for 1 hr. Four wells were used for each round of panning and 100 μl phage was added to each well. Pahge were precipitated with RNase-free 6% PEG 8000+0.3 M NaCl, washed with the same solution once and resuspended in RNase-free PBS+1 mM MgCl2+Superasin (RNase inhibitor from Ambion, Inc.). For the first round, the input phage titer was 1×10^13 cfu/ml. For rounds 2 and 3, the input phage titer was approximately 10^11 cfu/ml. Phage were allowed to bind for two to three hours at room temperature. The wells were then quickly washed 13 times with 400 μl/well of PBS. Bound phage were eluted by incubation with 150 μl/well of 50 mM glycine-HCl, pH 2.2+0.1% BSA for 5 min. The resulting solution was then neutralized with Tris-HCl, pH 8.0. Log phase TG1 cells were infected with the eluted phage by incubation at 37° C. for 1 hr. Helper phage (M13KO7) was then added (multiplicity of infection(MOI)=15) and cells incubated in the presence of 50 μg/ml ampicillin and 2% glucose for 1 hr at 37° C. with shaking at 250 rpm. Following infection, cells were pelleted, resuspended in the initial culture volume of 2×YT containing 50 μg/ml ampicillin and 50 μg/ml Kanamycin and grown overnight at 37° C. with shaking at 225 rpm. Cells from the overnight culture were pelleted and supernatant containing phage was recovered. Phage was precipitated with 6% PEG 8000, 300 mM NaCl and chilled on ice for 1 hr. […]
For Elisa analysis of individual clones, colonies were picked and phage prepared as described above using helper phage, M13KO7. […] Plates were analyzed at 405 nm using a SpectraMax 340 plate reader (Molecular Devices) and SoftMax Pro software. […]

Substance: RRTCGDPAAMLERLSCRAGDYRGASHTGRLLNLRGMHQYP [HCV-3-H8]
- Binding to HCV mRNA target: binders

Substance: TSGESSGDRTRRVLTSSSARTILPN [HCV-NG-D9]
- Binding to HCV mRNA target: binders

Substance: LLVTGQFP--SQLLLGGAVCGP--STPRLRTGLCRLSGT (LLVTGQFPSQLLLGGAVCGPSTPRLRTGLCRLSGT) [HCV-3-F5]
- Binding to HCV mRNA target: binders

Substance: FTTPRHLSGRTVQMMRDSTS [HCV-3-C3]
- Binding to HCV mRNA target: binders

Source: patent publication US20030054348A1, “Methods of identifying the activity of gene products” (priority 2000, published 2003)
